Key:
JAK2 = JAK2 (Homo sapiens, UniProt O60674); experiment: In vitro cell assay, JAK2 (STAT phosphorylation ELISA); format: cell-based; design: endogenous in cells; host or cells: UT-7/EPO (inferred); details: read-out: IC50, Cell Biology JAK2
Description: UT-7/EPO cell is an erythroleukemic cell line which expresses an EPO receptor, and is frequently used in many previous studies as a model to assess EPO-induced STAT5 phosphorylation mediated by JAK1 and JAK2 activity. Accordingly, in order to evaluate the activity of JAK1 and JAK2, UT-7/EPO cells were prepared.
The test material was dissolved in DMSO, prepared at 10 mM, divided by 20 μL each, and stored at −20° C.
• EPO: 2000 U/0.5 mL of stock was divided by 50 μL each and stored under refrigeration. • IL-2: 200 μg/ml of stock was prepared, divided by 5 μL each, and stored, and then treated at 2 ng/ml. (IL-2 1 μg/ml=13000 U/ml) • IFN-alphaB2: […] of stock was diluted and used, and then treated to reach 30000 U/ml.
• UT-7/EPO cell assay: MEM-alpha (Gibco, cat #12561-056) was prepared to contain 5% FBS and 1% P/S before use. • NK-92 cell assay: A preparation was made to contain HBSS, 1% FBS and 1% P/S before use. • U2OS cell assay: A preparation was made to contain HBSS, 1% FBS and 1% P/S before use.
The cultured cells were centrifuged (1,000 rpm, 5 minutes) and washed with PBS. The size of cell lines and appropriate reaction concentration thereof were set and the cell lines were seeded in a 96-well plate at 1×10^5 to 10^6 cells/well (50 μL/well). […]

[1] = test system: DSS-induced animal model (C57BL/6J mice); experiment: DSS-induced colitis model; format: in vivo; details: oral
Description: To induce colitis in C57BL/6J mice, drinking water was treated with 3% dextran sodium sulphate (DSS) and provided each morning for eight days, and a negative control group was provided with 0% DSS.
After mice were grouped into several groups (day O), the mice were orally dosed with 0.5% methylcellulose and Compound 1 obtained according to Preparation Example 1 as a test material at 9 a.m. and 5 p.m. every day from day 1 to day 7. Test animals were autopsied on day 8.
Disease activity index (DAI) was calculated as body weight, fecal […], and fecal blood score to represent the severity of the disease. Body weight and food intake were monitored and evaluated at the start of the study and every 24 hours, and fecal samples were collected on days 0, 3, 5, and 7 and analyzed according to Table 6 below.
After measuring the weight and length of the colon obtained by autopsy, the weight-to-length ratio was calculated.
On day 8, blood was drawn from the heart into a centrifuge tube containing EDTA-K2 anticoagulant. After centrifugation (7000 rpm, 10 minutes, 4° C.), plasma was separated, and KC and MIP-2 were measured by Meso Scale Discovery Kit.
The mRNA was extracted from a portion of large intestine tissues (same location for each animal) to analyze an expression level of MX2 and TNF-alpha in the tissues through qPCR.
The large intestine part fixed with 10% formalin was cut with paraffin and stained with hematoxylin-eosin. The criteria for histological changes in the colon followed Table 7 below.

JAK2, Tyk2 = experiment: Human whole blood assay, JAK2, Tyk2; format: cell-based; details: cytokine-induced STAT phosphorylation
Description: A stock solution of Compound 1 obtained according to Preparation Example 1 was diluted with distilled water and then serially diluted at ⅕ with 4% DMSO. 5 μL of test material was added to 100 μL of whole blood collected using a 1.7 mL eppendorf tube, mixed, and incubated at 37° C. for 45 minutes.
IL-6 (10 μg/ml) was diluted with 0.1% BSA/DW to reach 1 μg/mL each. 5 μL of IL-6 was added (at a final concentration of 50 ng/mL) and incubated at 37° C. for 15 minutes. At this time, 5 μL of DPBS was added as a non-stimulated control group. Lyse/fix buffer 5× was diluted 1× in distilled water and used. […]
For double staining of CD4 and pSTATI, anti-[…] and anti-pSTATI were mixed in a staining buffer and added to each of the samples. […] On the next day, the results were analyzed using FACSCanto II. […]
The numerical values analyzed by FlowJo were calculated to obtain IC50 values using GraphPad Prism 5 software (product name).
No treatment response (NTR) was set as a reference, and the degree of the phosphorylation of STAT induced by cytokines was converted into a relative ratio (% control group). A dose-response plot was obtained for each concentration-dependent activity of each test material using GraphPad Prism (version 5.0) and ICso values were calculated.

Sequence of JAK2 (O60674 whole entry, species assumed): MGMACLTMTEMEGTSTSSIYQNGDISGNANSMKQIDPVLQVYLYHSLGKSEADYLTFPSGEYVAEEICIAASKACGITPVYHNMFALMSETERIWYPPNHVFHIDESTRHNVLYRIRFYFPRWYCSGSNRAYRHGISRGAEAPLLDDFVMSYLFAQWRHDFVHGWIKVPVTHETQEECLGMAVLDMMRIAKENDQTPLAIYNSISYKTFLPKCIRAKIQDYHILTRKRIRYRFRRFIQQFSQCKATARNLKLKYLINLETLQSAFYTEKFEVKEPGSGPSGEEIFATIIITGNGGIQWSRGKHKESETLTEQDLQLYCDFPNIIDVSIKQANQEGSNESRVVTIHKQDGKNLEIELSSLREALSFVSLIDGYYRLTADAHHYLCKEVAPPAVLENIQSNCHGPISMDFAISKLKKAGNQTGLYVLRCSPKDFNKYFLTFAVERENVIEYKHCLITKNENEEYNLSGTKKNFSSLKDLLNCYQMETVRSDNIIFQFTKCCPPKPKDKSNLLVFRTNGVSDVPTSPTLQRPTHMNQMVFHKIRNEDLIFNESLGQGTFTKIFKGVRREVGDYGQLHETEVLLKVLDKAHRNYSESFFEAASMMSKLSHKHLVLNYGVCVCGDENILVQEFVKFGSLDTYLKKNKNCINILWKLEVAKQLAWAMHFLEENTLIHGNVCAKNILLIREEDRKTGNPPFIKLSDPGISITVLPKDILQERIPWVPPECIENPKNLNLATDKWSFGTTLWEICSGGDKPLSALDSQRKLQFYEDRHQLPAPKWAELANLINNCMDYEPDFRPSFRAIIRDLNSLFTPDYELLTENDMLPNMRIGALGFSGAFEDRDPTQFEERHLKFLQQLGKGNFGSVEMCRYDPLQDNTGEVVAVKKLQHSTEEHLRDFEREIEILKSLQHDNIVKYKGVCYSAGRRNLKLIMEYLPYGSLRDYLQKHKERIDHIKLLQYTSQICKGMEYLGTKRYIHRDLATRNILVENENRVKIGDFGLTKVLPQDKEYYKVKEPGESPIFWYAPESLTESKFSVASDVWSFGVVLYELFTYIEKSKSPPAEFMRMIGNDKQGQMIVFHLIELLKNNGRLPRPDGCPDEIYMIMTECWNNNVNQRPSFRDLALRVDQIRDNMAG

- IC50 (JAK2): 0.656 µM
- IC50 (JAK2, Tyk2): 3.64 µM
SMILES: C[C@@H]1CN(C(=O)CC#N)CC=C1c1cc(NC(=O)C2CC2)nc2[nH]ccc12 [Compound 1, (S)—N-(4-(1-(2-cyanoacetyl)-3-methyl-1,2,3,6-tetrahydropyridin-4-yl)-1H-pyrrolo[2,3-b]pyridin-6-yl)cyclopropanecarboxamide]
- Disease activity index (DAI) ([1]; 90 mg/kg, FIG. 21): reduced to half that of the control group (vehicle)
- Weight-to-length ratio of colon ([1]; FIG. 22): lower value compared to the control group (vehicle)
- Histopathological score ([1]; FIG. 24): lowered
- KC concentration in plasma ([1]; day 8, FIG. 23): decreased
- MIP-2 concentration in plasma ([1]; day 8, FIG. 23): decreased
- Expression level of MX2 in the colon ([1]; qPCR, FIG. 23): decreased
- Expression level of TNF-alpha in the colon ([1]; qPCR, FIG. 23): decreased
- Degree of increase in disease activity index (DAI) ([1]; twice daily day 1 to day 7, FIG. 21): lower than that of the control group (vehicle)

Source: patent publication US20240300943A1, “NOVEL SALTS OF HETEROCYCLIC COMPOUND AS PROTEIN KINASE INHIBITOR AND USES THEREOF” (HK INNO.N CORPORATION, priority 2021, published 2024)
